Test results as given in patent publication US8138191B2, “Inhibitor compounds and cancer treatment methods” (Critical Outcome Technologies Inc., priority 2007, dated 2012).

Key:
[1] = system: DMS-114 and SHP-77 SCLC cell lines; assay: Cell viability by trypan blue exclusion; type: cell-based, human; conditions: 250 nM, within four days
Method: Cell viability was determined at 24, 48, and 96 hrs by the trypan exclusion method. Whole cell lysates were prepared using standard procedures and fifty micrograms of lysate protein was separated on SDS-PAGE gels and analyzed by western blotting.
Cell viability was determined at 24, 48, and 96 h by the trypan exclusion method. Whole cell lysates were prepared using standard procedures and 50 μg of lysate protein was separated on SDS-PAGE gels and analyzed by western blotting.

[2] = system: PI3K activity in SHP77 cells; assay: PI3-K activity (PIP3 detection, Echelon kit), SHP77; type: cell-based, human; conditions: SHP77, 250 nM COTI-2 alone, 20 minutes
From the text: As a negative control, an equivalent volume of DMSO was utilized. […] To measure PI3-K activity, a commercial kit was purchased from Echelon. Following the procedures recommended by the manufacturer, membrane lipids were extracted in several steps and the resulting PIP3 was immobilized to nitrocellulose and measured by its interaction with a PH-domain containing protein and HRP-conjugated antibody supplied with the kit. As an additional control in these experiments, the specific PI3-K inhibitor, LY294002 was used to inhibit PI3-K and thus stop PIP3 production.

DMS114 cells = assay: AKT/AKT2 siRNA then COTI-2, cell viability by MTT assay, DMS114; type: cell-based, human; conditions: DMS114, 500 nM COTI-2
Method: Cell cultures were maintained under regular tissue culture conditions and passaged 1-2 times a week as recommended by ATCC. For siRNA experiments the manufacturer's conditions for growth and transfection were followed. All siRNA reagents for AKT and AKT2 transfections were obtained from Cell Signaling.
Cells were treated for 48 h with 0-100 ng of AKT or AKT2 siRNA before incubation with COTI-2 at various concentrations (0-500 nM). Following incubation for 48 h, cell viability was determined by MTT assay.

MCF-7 cells = assay: Sensitivity to COTI-2 after PTEN siRNA knockdown (alamar Blue), MCF-7; type: cell-based, human; conditions: MCF-7, 48 h post-transfection
Method: Briefly, HeLa and MCF-7 cells were transfected with 100 nM PTEN siRNA or control non-targeted siRNA at 48 or 144 h prior to exposure to various concentrations of COTI-2.
To assess the capacity of transient siRNA transfection to alter the ability of cells to proliferate in the presence or absence of COTI-2, HeLa or MCF-7 cells (both PTEN-positive) were plated in T25 flasks and transfected 24 h later with PTEN siRNA or non-targeting control siRNA (100 nM in both cases), using Oligofectamine Reagent (Invitrogen) according to the manufacturer's instructions and as previously described (J Pharmacol Exp Ther, 322:123-132). […] PTEN and 18S rRNA mRNA levels were determined by semi-quantitative reverse transcription PCR. […]
For determination of drug sensitivity, HeLa and MCF-7 cells (transfected with PTEN siRNA or control, non-targeted siRNA 48 or 144 hours prior) were re-plated in 96-well plates (VWR, Mississauga, ON, Canada) at 1700 (MCF-7) and 1200 (HeLa) cells per well in a volume of 100 μl of DMEM+10% FBS. […] Cells were then grown for 4 days, and viable cell numbers were assessed by the alamar Blue fluorescence assay using a Wallac Victor^2 multilabel counter (PerkinElmer Wallac, Gaithersburg, Md.). […]

[3] = A-B Permeability (TC7, pH 7.4/7.4) + verapamil; type: in vitro ADME; conditions: human, Caco-2, pH 7.4, with verapamil (concentration not stated), 1.0E−05 M
[4] = B-A Permeability (TC7, pH 7.4/7.4) + verapamil; type: in vitro ADME; conditions: human, Caco-2, pH 7.4, with verapamil (concentration not stated), 1.0E−05 M
[5] = Metabolic Stability (liver microsomes, rat, Sprague-Dawley); type: in vitro ADME; conditions: 1.0E−06 M, 60 min
Method: Metabolic stability was determined in human (mixed gender and pool of 50) monkey (male Cynomolgus, pool of 6 or more), dog male, beagle, pool of 4 or more) and rat (male Sprague-Dawley, pool of 100 or more) liver microsomes. […] Four reference substrates (1 μM) were tested simultaneously with COTI-2. […] Peak areas corresponding to COTI-2 were recorded by HPLC-MS/MS. Metabolic stability, expressed as percent of COTI-2 remaining, was calculated by comparing the peak area of COTI-2 at 60 min to time zero.

CYP1A = CYP1A (Homo sapiens, UniProt P05177); assay: in vitro; conditions: both
Sequence of CYP1A (P05177 whole entry): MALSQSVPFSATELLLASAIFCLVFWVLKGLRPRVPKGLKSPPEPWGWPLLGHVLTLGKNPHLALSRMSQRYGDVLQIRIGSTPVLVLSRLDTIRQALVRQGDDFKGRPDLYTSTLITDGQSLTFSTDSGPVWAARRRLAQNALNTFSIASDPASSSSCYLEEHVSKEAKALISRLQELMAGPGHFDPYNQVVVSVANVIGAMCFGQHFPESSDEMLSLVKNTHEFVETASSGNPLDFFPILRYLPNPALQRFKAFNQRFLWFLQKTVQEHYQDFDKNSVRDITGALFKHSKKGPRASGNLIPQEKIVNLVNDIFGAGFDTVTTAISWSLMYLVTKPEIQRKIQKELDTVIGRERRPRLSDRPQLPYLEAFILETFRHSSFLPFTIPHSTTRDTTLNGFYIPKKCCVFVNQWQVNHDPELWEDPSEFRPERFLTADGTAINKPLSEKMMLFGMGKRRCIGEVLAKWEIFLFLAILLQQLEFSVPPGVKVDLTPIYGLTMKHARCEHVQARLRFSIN

[6] = system: A2780 human ovarian tumor xenograft; assay: A2780 human ovarian tumor xenograft model; conditions: for Day 17 CS (Complete Tumor Shrinkage): N 10
[7] = 1st determination, read-out: Percent Recovery 1st
[8] = 2nd determination, read-out: Percent Recovery 2nd
[9] = mean, read-out: Percent Recovery Mean

SMILES: S=C(N/N=C1/CCCc2cccnc21)N1CCN(c2ccccn2)CC1 [COTI-2]
- original tumor cells killed [1]: up to 80%
- PI3K activity (PIP3 levels) [2]: did not inhibit PI3K activity
- cytotoxicity after AKT2 knock-down by siRNA (DMS114 cells): unable to exert additional significant cytotoxicity
- resistance to COTI-2 after PTEN siRNA transfection (MCF-7 cells): significant increase in the resistance
- recovery at 10 µM [3, 7]: 17%
- recovery at 10 µM [3, 8]: 13%
- recovery at 10 µM [3, 9]: 15%
- recovery at 10 µM [4, 7]: 49%
- recovery at 10 µM [4, 8]: 46%
- recovery at 10 µM [4, 9]: 47%
- Mean Parent Remaining [5]: 1%
- inhibition at 15 min, 10 µM (CYP1A; human liver microsomes, pH 7.4, probe phenacetin (10 µM)): -2%
- inhibition at 15 min, 10 µM (CYP1A; liver microsomes, pH 7.4, probe phenacetin): < 50%
- Day 17 Mean tumor weight ([6]; COTI-2 12.5 mg/kg IV): 1,699.2 ± 241.4 mg
- Day 17 TGI ([6]; COTI-2 12.5 mg/kg IV): 22.04%
- Maximum weight loss (%) (Day #) ([6]; COTI-2 12.5 mg/kg IV, Day 11): 10.35% (Day 11)
- Day 17 CS (Complete Tumor Shrinkage) ([6]; COTI-2 12.5 mg/kg IV): 0
- Day 17 Mean tumor weight ([6]; COTI-2 50.0 mg/kg IV): 1,622.8 ± 403.0 mg
- Day 17 TGI ([6]; COTI-2 50.0 mg/kg IV): 25.76%
- Maximum weight loss (%) (Day #) ([6]; COTI-2 50.0 mg/kg IV, Day 8): 8.65% (Day 8)
- Day 17 CS (Complete Tumor Shrinkage) ([6]; COTI-2 50.0 mg/kg IV): 0
